# Laboratory results published in article PMC5054527, “Mechanism of high affinity inhibition of the human urate transporter URAT1” (Scientific Reports, 2016).
# Values joined by “and” are separate entries in the source; they are usually repeats but may differ in a detail not shown here. Equal entries are not always repeated.
# Tests used:
# [1] = molecular target: T1, h-V26T hURAT1 point mutant (Homo sapiens, UniProt Q96S37, V26T); test: URAT1 uric acid transport activity assay; format: cell-based; conditions: HEPES pH 7.3, 100 μM 14C-uric acid
# T1 construct: expressed in transfected cells; host or cells: HEK-293T
# T1 sequence (Q96S37 whole entry V26T): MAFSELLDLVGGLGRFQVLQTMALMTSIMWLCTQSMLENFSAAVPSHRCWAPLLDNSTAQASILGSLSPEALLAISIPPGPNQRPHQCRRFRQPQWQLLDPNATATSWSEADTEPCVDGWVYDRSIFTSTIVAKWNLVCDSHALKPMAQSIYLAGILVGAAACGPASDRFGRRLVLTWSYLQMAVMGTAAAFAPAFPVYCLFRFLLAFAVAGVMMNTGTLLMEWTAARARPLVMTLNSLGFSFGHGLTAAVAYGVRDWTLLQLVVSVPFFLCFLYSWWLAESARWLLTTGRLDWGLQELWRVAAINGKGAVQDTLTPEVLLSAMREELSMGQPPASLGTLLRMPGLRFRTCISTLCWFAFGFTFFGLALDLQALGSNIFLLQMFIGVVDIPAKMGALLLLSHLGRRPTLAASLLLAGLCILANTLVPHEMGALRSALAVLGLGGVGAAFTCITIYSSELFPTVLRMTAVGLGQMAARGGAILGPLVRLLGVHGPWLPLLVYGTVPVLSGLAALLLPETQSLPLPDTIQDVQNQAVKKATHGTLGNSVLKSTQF
# [2] = molecular target: T2, h-I481M hURAT1 point mutant (Homo sapiens, UniProt Q96S37, I481M); test: URAT1 uric acid transport activity assay; format: cell-based
# T2 construct: expressed in transfected cells; host or cells: HEK-293T
# T2 sequence (Q96S37 whole entry I481M): as the sequence (Q96S37 whole entry V26T) above, with T26V, I481M counted along it
# [3] = molecular target: T3, h-T21A hURAT1 point mutant (Homo sapiens, UniProt Q96S37, T21A); test: URAT1 uric acid transport activity assay; format: cell-based; conditions: HEPES pH 7.3, 100 μM 14C-uric acid
# T3 construct: expressed in transfected cells; host or cells: HEK-293T
# T3 sequence (Q96S37 whole entry T21A): as the sequence (Q96S37 whole entry V26T) above, with T21A, T26V counted along it
# [4] = molecular target: T4, h-M25V hURAT1 point mutant (Homo sapiens, UniProt Q96S37, M25V); test: URAT1 uric acid transport activity assay; format: cell-based
# T4 construct: expressed in transfected cells; host or cells: HEK-293T
# T4 sequence (Q96S37 whole entry M25V): as the sequence (Q96S37 whole entry V26T) above, with M25V, T26V counted along it
# [5] = molecular target: T5, h-S27P hURAT1 point mutant (Homo sapiens, UniProt Q96S37, S27P); test: URAT1 uric acid transport activity assay; format: cell-based; conditions: HEPES pH 7.3, 100 μM 14C-uric acid
# T5 construct: expressed in transfected cells; host or cells: HEK-293T
# T5 sequence (Q96S37 whole entry S27P): as the sequence (Q96S37 whole entry V26T) above, with T26V, S27P counted along it
# [6] = molecular target: T6, h-M474V hURAT1 point mutant (Homo sapiens, UniProt Q96S37, M474V); test: URAT1 uric acid transport activity assay; format: cell-based; conditions: HEPES pH 7.3, 100 μM 14C-uric acid
# T6 construct: expressed in transfected cells; host or cells: HEK-293T
# T6 sequence (Q96S37 whole entry M474V): as the sequence (Q96S37 whole entry V26T) above, with T26V, M474V counted along it
# [7] = molecular target: T7, h-C32T hURAT1 point mutant (Homo sapiens, UniProt Q96S37, C32T); test: URAT1 uric acid transport activity assay; format: cell-based; conditions: HEPES pH 7.3, 100 μM 14C-uric acid
# T7 construct: expressed in transfected cells; host or cells: HEK-293T
# T7 sequence (Q96S37 whole entry C32T): as the sequence (Q96S37 whole entry V26T) above, with T26V, C32T counted along it
# [8] = molecular target: T8, h-r TM11 URAT1 chimera (Homo sapiens, UniProt Q96S37, I481M/M474V); test: URAT1 uric acid transport activity assay; format: cell-based, human/rat
# T8 construct: expressed in transfected cells; host or cells: HEK-293T
# T8 sequence (Q96S37 whole entry M474V/I481M): as the sequence (Q96S37 whole entry V26T) above, with T26V, M474V, I481M counted along it
# Source text: (§1) hURAT1 (GenBank BC053348.1) and rURAT1 (NCBI NM_001034943.1) genes were purchased from Origene Technologies, Inc. and subcloned into pCMV6/neo using NotI, creating pCMV6/neo-hURAT1 and pCMV6/neo-rURAT1. Mutants were produced by polymerase chain reaction (PCR) or site-directed mutagenesis using the QuikChange Lightning Multi Site-Directed Mutagenesis Kit (Agilent Technologies). […] Detailed methods are provided in Supplementary Methods, and primers are listed in Supplementary Table 1. […] Residues in rURAT1 and hOAT1 that correspond to the residues in hURAT1 were identified from aligned protein sequences (Supplementary Fig. 1)[50].
# (§2) DNA (10 μg) was mixed with 30 μl of DreamFect Gold (Boca Scientific) in 2 ml OptiMem (Life Technologies). After 20 minutes, 18 ml of media containing 2 × 10^7 cells in suspension was added and mixed, and 200 μl per well were plated onto white clear-bottomed poly-D-lysine coated 96-well plates (BD Biosciences). The cells were assayed the following day.
# (§3) Compounds were serially diluted into assay buffer and added to the cells for 5 minutes prior to addition of radiolabelled uric acid substrate. URAT1-expressing cells were incubated with 100 μM ^14C-uric acid for 10 minutes. […] Each treatment was measured in triplicate.
# (§4) Unlabelled uric acid was prepared at a 20 mM stock just prior to use in a solution containing 20 mM dibasic potassium phosphate and 20 mM potassium hydroxide.
# (§5) Nonlinear regression analyses using GraphPad Prism software were used to calculate the potency of URAT1 inhibitors (IC50 values) from log (inhibitor) versus response - variable slope (four parameters) equations. Statistical significance was assessed using Student’s unpaired t-tests.
# [9] = molecular target: T9, h-r TM9-N URAT1 chimera (Homo sapiens, UniProt Q96S37, A411S/A416P/L414V); test: URAT1 uric acid transport activity assay; format: cell-based, human/rat; conditions: HEPES pH 7.3, 100 μM 14C-uric acid
# T9 construct: expressed in transfected cells; host or cells: HEK-293T
# T9 sequence (Q96S37 whole entry A411S/L414V/A416P): as the sequence (Q96S37 whole entry V26T) above, with T26V, A411S, L414V, A416P counted along it
# Source text: as §1, §2, §3, §4, §5
# [10] = molecular target: T10, h-r TM10 URAT1 chimera (Homo sapiens, UniProt Q96S37, G444S/I452V/V445L/Y455F); test: URAT1 uric acid transport activity assay; format: cell-based, human/rat; conditions: HEPES pH 7.3, 100 μM 14C-uric acid
# T10 construct: expressed in transfected cells; host or cells: HEK-293T
# T10 sequence (Q96S37 whole entry G444S/V445L/I452V/Y455F): as the sequence (Q96S37 whole entry V26T) above, with T26V, G444S, V445L, I452V, Y455F counted along it
# Source text: as §1, §2, §3, §4, §5
# [11] = molecular target: T11, h-r TM1 chimera (rURAT1 residues 1–99 and hURAT residues 100–553) (UniProt Q3ZAV1+Q96S37); test: URAT1 uric acid transport activity assay; format: cell-based, human/rat
# T11 construct: a chimera consisting of rURAT1 residues 1–99 and hURAT residues 100–553 (h-r TM1); expressed in transfected cells; host or cells: HEK-293T
# T11 sequence (Q3ZAV1 1-99, change not shown): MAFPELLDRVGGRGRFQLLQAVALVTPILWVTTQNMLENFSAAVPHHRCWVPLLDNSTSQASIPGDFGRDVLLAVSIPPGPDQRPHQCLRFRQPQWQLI
# T11 sequence (Q96S37 100-553, change not shown): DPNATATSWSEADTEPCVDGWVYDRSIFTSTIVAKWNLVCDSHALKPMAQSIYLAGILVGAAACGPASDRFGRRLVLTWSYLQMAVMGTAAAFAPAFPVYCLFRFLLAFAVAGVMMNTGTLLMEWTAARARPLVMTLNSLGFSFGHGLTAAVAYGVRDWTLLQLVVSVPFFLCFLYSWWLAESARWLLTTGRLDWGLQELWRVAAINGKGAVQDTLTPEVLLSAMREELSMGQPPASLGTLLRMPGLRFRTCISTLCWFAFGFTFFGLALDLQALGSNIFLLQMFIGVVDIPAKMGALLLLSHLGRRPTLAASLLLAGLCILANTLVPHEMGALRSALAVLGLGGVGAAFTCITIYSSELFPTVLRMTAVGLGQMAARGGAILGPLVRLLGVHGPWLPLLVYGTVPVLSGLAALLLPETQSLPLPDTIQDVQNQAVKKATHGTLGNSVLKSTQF
# Source text: as §1, §2, §3, §4, §5
# [12] = molecular target: T12, h-r TM9-C URAT1 chimera (Homo sapiens, UniProt Q96S37, A432I/A436S/H428R/T424I); test: URAT1 uric acid transport activity assay; format: cell-based, human/rat; conditions: HEPES pH 7.3, 100 μM 14C-uric acid
# T12 construct: expressed in transfected cells; host or cells: HEK-293T
# T12 sequence (Q96S37 whole entry T424I/H428R/A432I/A436S): as the sequence (Q96S37 whole entry V26T) above, with T26V, T424I, H428R, A432I, A436S counted along it
# Source text: as §1, §2, §3, §4, §5
# [13] = molecular target: T13, h-r TM6 URAT1 chimera (Homo sapiens, UniProt Q96S37, C272F/L274V); test: URAT1 uric acid transport activity assay; format: cell-based, human/rat; conditions: HEPES pH 7.3, 100 μM 14C-uric acid
# T13 construct: expressed in transfected cells; host or cells: HEK-293T
# T13 sequence (Q96S37 whole entry C272F/L274V): as the sequence (Q96S37 whole entry V26T) above, with T26V, C272F, L274V counted along it
# Source text: as §1, §2, §3, §4, §5
# [14] = molecular target: T14, r-h TM1 chimera (hURAT1 residues 1–99 and rURAT1 residues 100–553) (UniProt Q3ZAV1+Q96S37); test: URAT1 uric acid transport activity assay; format: cell-based, human/rat; conditions: HEPES pH 7.3, 100 μM 14C-uric acid
# T14 construct: The chimera r-hTM1, consisting of hURAT1 residues 1–99 and rURAT1 residues 100–553; expressed in transfected cells; host or cells: HEK-293T
# T14 sequence (Q96S37 1-99, change not shown): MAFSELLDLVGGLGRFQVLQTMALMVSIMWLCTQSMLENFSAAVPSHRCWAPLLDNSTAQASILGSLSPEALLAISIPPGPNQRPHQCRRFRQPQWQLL
# T14 sequence (Q3ZAV1 100-553, change not shown): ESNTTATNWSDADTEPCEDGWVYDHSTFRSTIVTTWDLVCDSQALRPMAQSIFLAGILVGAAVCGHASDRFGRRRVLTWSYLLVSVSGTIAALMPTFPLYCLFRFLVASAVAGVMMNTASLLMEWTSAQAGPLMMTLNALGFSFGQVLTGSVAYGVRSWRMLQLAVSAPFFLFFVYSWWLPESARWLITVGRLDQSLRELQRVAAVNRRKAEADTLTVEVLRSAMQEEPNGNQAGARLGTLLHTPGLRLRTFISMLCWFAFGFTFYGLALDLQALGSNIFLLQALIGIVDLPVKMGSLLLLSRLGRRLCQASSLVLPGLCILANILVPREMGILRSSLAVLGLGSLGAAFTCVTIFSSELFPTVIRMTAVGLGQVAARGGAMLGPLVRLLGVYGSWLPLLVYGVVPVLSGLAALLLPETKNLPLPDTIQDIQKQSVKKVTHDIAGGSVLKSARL
# Source text: as §1, §2, §3, §4, §5
# [15] = molecular target: T15, h-r TM5-N URAT1 chimera (Homo sapiens, UniProt Q96S37, S238A/V233M); test: URAT1 uric acid transport activity assay; format: cell-based, human/rat; conditions: HEPES pH 7.3, 100 μM 14C-uric acid
# T15 construct: expressed in transfected cells; host or cells: HEK-293T
# T15 sequence (Q96S37 whole entry V233M/S238A): as the sequence (Q96S37 whole entry V26T) above, with T26V, V233M, S238A counted along it
# Source text: as §1, §2, §3, §4, §5
# [16] = molecular target: h-r EC1,TM2-4 URAT1 chimera (Homo sapiens, UniProt Q96S37, A103T/A133T/A162V/A184S/A189I/A193M/A195T/A226S/A51V/A59S/A71V/D100E/E110D/E70D/F192L/F208S/G218A/H142Q/I126T/I75V/K134T/K145R/L174R/L206V/L64P/L67F/L99I/M183V/M186S/N136D/N82D/P101S/P165H/P69R/Q182L/R124H/R89L/S107N/S46H/S66D/S68G/T128R/T219S/V117E/V198L/Y152F); test: cell-based; conditions: IC50 (uric acid transport), HEPES pH 7.3, 100 μM 14C-uric acid
# h-r EC1,TM2-4 URAT1 chimera, sequence (Q96S37 1-553 with the stated changes): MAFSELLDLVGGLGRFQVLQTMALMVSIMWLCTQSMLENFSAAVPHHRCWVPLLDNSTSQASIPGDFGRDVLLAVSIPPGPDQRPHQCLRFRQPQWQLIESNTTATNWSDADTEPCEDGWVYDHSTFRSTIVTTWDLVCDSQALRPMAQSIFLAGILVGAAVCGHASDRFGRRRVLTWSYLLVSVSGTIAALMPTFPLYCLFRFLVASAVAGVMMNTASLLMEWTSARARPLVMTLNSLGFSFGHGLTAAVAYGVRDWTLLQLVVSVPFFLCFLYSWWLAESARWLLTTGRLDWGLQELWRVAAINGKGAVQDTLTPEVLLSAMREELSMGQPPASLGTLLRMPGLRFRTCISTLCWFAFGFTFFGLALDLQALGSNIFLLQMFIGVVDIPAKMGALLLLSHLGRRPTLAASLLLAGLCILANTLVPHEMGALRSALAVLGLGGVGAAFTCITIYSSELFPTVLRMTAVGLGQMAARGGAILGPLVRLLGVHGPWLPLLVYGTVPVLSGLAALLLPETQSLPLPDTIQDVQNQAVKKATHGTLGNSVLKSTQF
# Source text: as §1
# (§6) DNA (10 μg) was mixed with 30 μl of DreamFect Gold (Boca Scientific) in 2 ml OptiMem (Life Technologies). […]
# (§7) Compounds were serially diluted into assay buffer and added to the cells for 5 minutes prior to addition of radiolabelled uric acid substrate. […] Each treatment was measured in triplicate. […]
# as §5
# [17] = molecular target: h-r IC3 URAT1 chimera (Homo sapiens, UniProt Q96S37, F348L/G295S/G307R/G309K/G331N/I305V/K308R/L287I/L321R/L328P/M330G/M343T/P317V/P333A/P334G/Q297R/Q312A/R325Q/R342H/S329N/S336R/T289V/V311E/W294Q/W300Q); test: cell-based
# h-r IC3 URAT1 chimera, sequence (Q96S37 1-553 with the stated changes): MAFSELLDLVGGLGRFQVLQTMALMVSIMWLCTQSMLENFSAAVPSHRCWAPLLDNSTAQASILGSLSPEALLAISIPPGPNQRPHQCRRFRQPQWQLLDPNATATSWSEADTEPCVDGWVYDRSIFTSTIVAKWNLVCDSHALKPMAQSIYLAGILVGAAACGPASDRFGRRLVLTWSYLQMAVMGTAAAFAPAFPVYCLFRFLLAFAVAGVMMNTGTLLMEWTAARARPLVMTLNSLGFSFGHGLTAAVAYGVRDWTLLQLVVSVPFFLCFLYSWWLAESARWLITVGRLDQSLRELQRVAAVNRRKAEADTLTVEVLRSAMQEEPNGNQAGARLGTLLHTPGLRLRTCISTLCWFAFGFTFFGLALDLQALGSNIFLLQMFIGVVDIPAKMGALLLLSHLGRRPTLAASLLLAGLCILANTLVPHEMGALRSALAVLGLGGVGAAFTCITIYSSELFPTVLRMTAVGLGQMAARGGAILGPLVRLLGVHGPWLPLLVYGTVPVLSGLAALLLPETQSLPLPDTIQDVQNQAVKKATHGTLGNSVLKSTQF
# Source text: as §1, §6, §7, §5
# [18] = molecular target: T16, hURAT1-S35N/F365Y double point mutant (Homo sapiens, UniProt Q96S37, F365Y/S35N); test: URAT1 uric acid transport activity assay; format: cell-based
# T16 construct: hURAT1 and rURAT1 are 553 amino acid proteins with 12 transmembrane segments; expressed in transfected cells; host or cells: HEK-293T
# T16 sequence (Q96S37 whole entry S35N/F365Y): as the sequence (Q96S37 whole entry V26T) above, with T26V, S35N, F365Y counted along it
structure (smiles),measurement,setting,value
O=C1C(CC[S+]([O-])c2ccccc2)C(=O)N(c2ccccc2)N1c1ccccc1 (centres unmarked) [sulfinpyrazone],IC50,[1],21 ± 4.7 µM
same,fold reduced affinity of h-I481M compared to hURAT1,[2]; from IC50 values,4 fold
same,IC50,"[2]; h-I481M, HEPES pH 7.3, 100 μM 14C-uric acid",118 ± 8.1 µM
same,IC50,[3],12 ± 2.3 µM
same,fold reduced affinity of h-M25V compared to hURAT1,[4]; from IC50 values,1.7 fold
same,IC50,"[4]; h-M25V, HEPES pH 7.3, 100 μM 14C-uric acid",53 ± 6 µM
same,IC50,[5],9.3 µM and 9 µM
same,IC50,[6],30 ± 3.4 µM
same,IC50,[7],29 ± 3.2 µM
same,fold reduced affinity of h-r TM11 compared to hURAT1,[8]; from IC50 values,3 fold
same,IC50,"[8]; h-r TM11, HEPES pH 7.3, 100 μM 14C-uric acid",100 ± 15 µM
same,IC50,[9],36 ± 17 µM
same,IC50,[10],49 ± 11 µM
same,fold reduced affinity of h-r TM1 compared to hURAT1,[11]; from IC50 values,3 fold
same,IC50,"[11]; h-r TM1, HEPES pH 7.3, 100 μM 14C-uric acid",93 ± 17 µM
same,IC50,[12],38 ± 11 µM
same,IC50,[13],30 ± 4 µM
same,IC50,[14],87 ± 25 µM
same,IC50,[15],37 ± 9 µM
same,IC50,[16],3 µM and 3.4 µM
same,IC50,[17],67 ± 15 µM
O=c1[nH]c(=O)c2[nH]c(=O)[nH]c2[nH]1 [uric acid],fold decrease in affinity of h-S35N/F365Y relative to hURAT1,[18]; from IC50 values,3.9 fold
same,IC50,"[18]; hURAT1-S35N/F365Y, MES pH 5.5, 100 μM 14C-uric acid",960 µM
